From US10201564B2, “Methods of using inhaled nitric oxide gas for treatment of acute respiratory distress syndrome in children” (Mallinckrodt Hospital Products IP Limited, priority 2014, dated 2019)

System: pediatric subjects with acute hypoxemic respiratory failure (AHRF)
Test: Pediatric AHRF study: adverse events, serious adverse events, deaths, discontinuations
Assay type: in vivo, human
Method: This was a prospective, multicenter, randomized, double-blind, placebo-controlled, parallel-group study of the safety and efficacy of inhaled nitric oxide in pediatric subjects with acute hypoxemic respiratory failure (AHRF). The subjects were randomized to receive either 5 ppm inhaled nitric oxide or placebo.
Nitric Oxide for inhalation at 5 ppm was administered continuously into the inspiratory limb of the ventilator circuit in mechanically ventilated subjects using a blinded version of the INOvent® delivery system.
Subjects received 100% treatment gas (nitric oxide 5 ppm or placebo [nitrogen gas]) until Day 28 or extubation, whichever occurred first.
This was a prospective, multicenter, randomized, double-blind, placebo-controlled, Phase III study to assess the effects of nitric oxide for inhalation in the treatment of acute hypoxic respiratory failure (AHRF) in pediatric subjects. The study population consisted of male and female pediatric subjects, aged 44 weeks postconceptional age to 16 years age, who were admitted to the pediatric intensive care unit (PICU) and who required intubation because of AHRF. The inclusion/exclusion criteria are described in the Patients section below.
Standardized ventilatory management and weaning procedures were used. Ventilatory management was used based on an “open lung approach” using positive end-expiratory pressure (PEEP) to increase lung volume and limiting tidal volumes to reduce plateau pressures. Subjects received nitric oxide for inhalation at 5 ppm or placebo (100% Grade 5 nitrogen gas) into the inspiratory limb of the ventilator circuit using a blinded version of the INOvent® delivery system. The subjects were treated until Day 28 or extubation, whichever occurred first. Subjects were assessed daily using a spontaneous breathing trial, according to the institution's standard of care. Arterial blood gases (ABG), ventilator settings, methemoglobin, oxygenation index, systolic blood pressure, diastolic blood pressure, Pediatric Risk of Mortality (PRISM) III score, and subject positioning (prone or supine) were performed/recorded at specified times during the study. Selected centers also performed plasma cytokine assays, bronchoalveolar lavage fluid (BALF) assays, and a 6-month follow-up assessment.

[1] = 5 ppm, relationship to study treatment Suspected

## [N]=O [Nitric Oxide, nitric oxide]
[1]
  Serious adverse event: Hypotension, subjects n (%): 0 (0.0)
  Serious adverse event: Hypoxia, subjects n (%): 0 (0.0)
  Serious adverse event: Intracranial pressure increased, subjects n (%): 0 (0.0)
  Serious adverse event: Multi-organ failure, subjects n (%): 0 (0.0)
  Serious adverse event: Pancreatitis, subjects n (%): 0 (0.0)
  Serious adverse event: Pneumonia, aspergillus, subjects n (%): 0 (0.0)
  Serious adverse event: Pulmonary hemorrhage, subjects n (%): 0 (0.0)
  Serious adverse event: Renal failure, acute, subjects n (%): 0 (0.0)
  Serious adverse event: Renal failure, subjects n (%): 0 (0.0)
  Serious adverse event: Renal impairment, subjects n (%): 0 (0.0)
  Serious adverse event: Respiratory failure, subjects n (%): 0 (0.0)
  Serious adverse event: Sepsis, subjects n (%): 0 (0.0)
  Serious adverse event: Subdural hematoma, subjects n (%): 0 (0.0)
  Serious adverse event: Unevaluable event, subjects n (%): 0 (0.0)
5 ppm, subjects with AE
  Abdominal distension: 0 (0.0) n (%)
  Acidosis: 1 (3.8%) n (%)
  Agitation: 2 (7.7%) n (%)
  Anemia: 1 (3.8%) n (%)
  Apnea: 1 (3.8%) n (%)
  Arrhythmia: 1 (3.8%) n (%)
  Ascites: 1 (3.8%) n (%)
  Bacteremia: 2 (7.7%) n (%)
  Bacteria, blood: 1 (3.8%) n (%)
  Bacteria, sputum: 0 (0.0) n (%)
  Bladder distension: 0 (0.0) n (%)
  Brain edema: 0 (0.0) n (%)
  Bronchoalveolar lavage: 1 (3.8%) n (%)
  C-reactive protein increased: 0 (0.0) n (%)
  Cardiac arrest: 0 (0.0) n (%)
  Cerebral artery occlusion: 0 (0.0) n (%)
  Chest tube insertion: 1 (3.8%) n (%)
  Deep vein thrombosis: 2 (7.7%) n (%)
  Device failure: 0 (0.0) n (%)
  Diabetic ketoacidosis: 0 (0.0) n (%)
  Diarrhea: 0 (0.0) n (%)
  Disseminated intravascular coagulation: 0 (0.0) n (%)
  Empyema: 0 (0.0) n (%)
  Feeding disorder: 0 (0.0) n (%)
  Fungemia: 1 (3.8%) n (%)
  Fungus culture positive: 0 (0.0) n (%)
  Fungus urine test positive: 0 (0.0) n (%)
  Gangrene: 1 (3.8%) n (%)
  Gastrointestinal hemorrhage: 0 (0.0) n (%)
  Generalized edema: 0 (0.0) n (%)
  Hematuria: 0 (0.0) n (%)
  Hemoglobinemia: 1 (3.8%) n (%)
  Hemolytic anemia: 0 (0.0) n (%)
  Hemopneumothorax: 0 (0.0) n (%)
  Hemorrhage: 0 (0.0) n (%)
  Hemothorax: 0 (0.0) n (%)
  Hepatic failure: 0 (0.0) n (%)
  Hepatosplenomegaly: 1 (3.8%) n (%)
  Hyperammonemia: 0 (0.0) n (%)
  Hypercalcemia: 1 (3.8%) n (%)
  Hypercapnia: 0 (0.0) n (%)
  Hyperchloremia: 1 (3.8%) n (%)
  Hyperglycemia: 1 (3.8%) n (%)
  Hyperkalemia: 1 (3.8%) n (%)
  Hyperlipidemia: 0 (0.0) n (%)
  Hypernatremia: 2 (7.7%) n (%)
  Hypertension: 0 (0.0) n (%)
  Hypocalcemia: 1 (3.8%) n (%)
  Hypochloremia: 0 (0.0) n (%)
  Hypothermia: 0 (0.0) n (%)
  Hypoxia: 0 (0.0) n (%)
  Intracranial pressure increased: 0 (0.0) n (%)
  Labile blood pressure: 0 (0.0) n (%)
  Leukocytosis: 1 (3.8%) n (%)
  Lung infection, pseudomonal: 0 (0.0) n (%)
  Medical device removal: 0 (0.0) n (%)
  Metabolic acidosis: 0 (0.0) n (%)
  Metabolic alkalosis: 1 (3.8%) n (%)
  Multi-organ failure: 0 (0.0) n (%)
  Ocular icterus: 0 (0.0) n (%)
  Oliguria: 0 (0.0) n (%)
  Oxygen saturation decreased: 2 (7.7%) n (%)
  Pancreatitis: 0 (0.0) n (%)
  Pleural effusion: 0 (0.0) n (%)
  Pneumomediastinum: 0 (0.0) n (%)
  Pneumonia: 1 (3.8%) n (%)
  Pneumonia, aspergillus: 0 (0.0) n (%)
  Pneumonia, staphylococcal: 1 (3.8%) n (%)
  Pruritus: 0 (0.0) n (%)
  Pseudomonal sepsis: 1 (3.8%) n (%)
  Pulmonary hemorrhage: 0 (0.0) n (%)
  Pulmonary hypertension: 0 (0.0) n (%)
  Pyrexia: 0 (0.0) n (%)
  Renal failure: 1 (3.8%) n (%)
  Renal failure, acute: 0 (0.0) n (%)
  Renal impairment: 0 (0.0) n (%)
  Respiratory acidosis: 0 (0.0) n (%)
  Sepsis: 0 (0.0) n (%)
  Skin injury: 0 (0.0) n (%)
  Subdural hematoma: 0 (0.0) n (%)
  Thrombocythemia: 1 (3.8%) n (%)
  Thrombocytopenia: 0 (0.0) n (%)
  Tracheitis: 2 (7.7%) n (%)
  Unevaluable event: 2 (7.7%) n (%)
  Urinary tract infection: 1 (3.8%) n (%)
  Urinary tract infection, fungal: 1 (3.8%) n (%)
  Urine output decreased: 1 (3.8%) n (%)
  White blood cell count increased: 0 (0.0) n (%)
Died after the treatment period
  AE in which death was the outcome, subject 2001A: No AE listed in which death was the outcome
Donor two
  AE in which death was the outcome, subject 2007: No AE listed in which death was the outcome
In words
  relationship of deaths, serious AEs, severe AEs and AEs resulting in discontinuation to study treatment: No death, serious AE, severe AE, or AE resulting in treatment discontinuation was suspected to be related to study treatment
Subject 3003 (person one), nitric oxide group
  SAE (identification of subjects with serious adverse events): Bradycardia, hypotension
Subject 3003 (person one), nitric oxide group, DC = discontinued treatment
  Action/Reported Outcome of SAE: DC/death
